# Measurements as given in patent EP4722363A1, “RNAI AGENT FOR INHIBITING ANGPTL3 EXPRESSION AND USE THEREOF” (YUN HO BIO CO., LTD, priority 2023, dated 2024).
# Legend:
# ANGPTL3 Protein [1] = test: PHH free uptake, inhibition of ANGPTL3, ELISA of supernatant; assay type: cell-based; details: primary human hepatocytes, 72 hours
# Description: PHH cells were thawed and adjusted to a density of 6×10^5 cells/mL. Then, 10 µL of the compound from the dilution plate was added to the cell culture plate, resulting in final compound concentrations of 100, 40, 12.5, 5, and 2 nM. The cells were seeded into a 96-well plate at a density of 54,000 cells per well (90 µL/well), with a final culture volume of 100 µL per well. The cells were cultured in a 5% CO2 incubator at 37°C for 72 hours.
# (§1) The supernatant from the PHH and PCH cultures from the previous steps was collected, transferred to a new 96-well V-bottom plate, and centrifuged. Human Angiopoietin-like 3 protein (hANGPTL3 protein; DANL30) ELISA test was performed according to the instructions of HANGPTL 3 protein Kit.
# (§2) Data Analysis: Four Parameter Logistic method. This method constructs a standard curve by plotting, with the y-axis as the average absorbance of the standards and the x-axis as the concentration, drawing a best-fit curve through the points on the graph. The OD value of the log concentration of the sample's HANGPTL3 protein is determined against the best-fit line of the log concentration by regression analysis. [formula]
# (§3) Sequences with good activity in Table 8 were evaluated for in vitro inhibitory activity against ANGPTL3 Protein in primary human hepatocytes (PHH) and primary cynomolgus monkey hepatocytes (PCH). Table 10. In Vitro Inhibitory Activity of MCPP-siRNAs against ANGPTL3 mRNA in PHH Cell Line
# ANGPTL3 Protein [2] = test: PCH free uptake, inhibition of ANGPTL3, ELISA of supernatant; assay type: cell-based; details: primary cynomolgus monkey hepatocytes, 72 hours
# Description: PCH cells were resuscitated using 10% FBS InvitroGRO™ HT Medium, and subsequently, the cell density was adjusted to 3×10^5 cells/mL using 10% FBS InvitroGRO™ CP Medium. Then, 10 µL of the compound from the dilution plate was added to the cell culture plate, resulting in final compound concentrations of 25, 5, and 1 nM. The cells were seeded into a 96-well plate at a density of 27,000 cells per well (90 µL/well), with a final culture volume of 100 µL per well. The cells were cultured in a 5% CO2 incubator at 37 °C for 72 hours.
# as §1, §2, §3
Substance,IC50 (ANGPTL3 Protein [1]) [nM],Average Inhibition in PCH % (ANGPTL3 Protein [2]; 1nM) [%],Average Inhibition in PCH % (ANGPTL3 Protein [2]; 5nM) [%],Average Inhibition in PCH % (ANGPTL3 Protein [2]; 25nM) [%]
"2008-019-001: GalNAc-conjugated modified ANGPTL3 siRNA, sense SEQ ID NO 41, antisense SEQ ID NO 28 (sense GAGAAGAACUACAUAUAAA; antisense UUUAUAUGUAGUUCUUCUCAG; GalNAc conjugated, chemically modified, pattern not given here) [Duplex 2008-019-001]",1.61,58.78,73.01,75.51
"2008-035-002: GalNAc-conjugated modified ANGPTL3 siRNA, sense SEQ ID NO 37, antisense SEQ ID NO 28 (sense GAGAAGAACUACAUAUAAA; antisense UUUAUAUGUAGUUCUUCUCAG; GalNAc conjugated, chemically modified, pattern not given here) [Duplex 2008-035-002]",2.23,–,–,–
"2002-050-L96: L96-conjugated comparator siRNA, sense SEQ ID NO 43, antisense SEQ ID NO 18 (sense CAUAGUGAAGCAAUCUAAU; antisense AUUAGAUUGCUUCACUAUGGA; L96 GalNAc conjugate, position not given here, modification pattern not given here) [Duplex 2002-050-L96, reference compound]",2.6,–,–,–
"2002-033-002: GalNAc-conjugated modified ANGPTL3 siRNA, sense SEQ ID NO 33, antisense SEQ ID NO 12 (sense CAUAGUGAAGCAAUCUAAU; antisense AUUAGAUUGCUUCACUAUGGA; GalNAc conjugated, chemically modified, pattern not given here) [Duplex 2002-033-002]",0.84,–,–,–
"2008-018-001: GalNAc-conjugated modified ANGPTL3 siRNA, sense SEQ ID NO 41, antisense SEQ ID NO 27 (sense GAGAAGAACUACAUAUAAA; antisense UUUAUAUGUAGUUCUUCUCAG; GalNAc conjugated, chemically modified, pattern not given here) [Duplex 2008-018-001]",2.34,59.56,73.29,76.55
"2008-018-002: GalNAc-conjugated modified ANGPTL3 siRNA, sense SEQ ID NO 36, antisense SEQ ID NO 27 (sense GAGAAGAACUACAUAUAAA; antisense UUUAUAUGUAGUUCUUCUCAG; GalNAc conjugated, chemically modified, pattern not given here) [Duplex 2008-018-002]",0.96,–,–,–
"2008-010-002: GalNAc-conjugated modified ANGPTL3 siRNA, sense SEQ ID NO 35, antisense SEQ ID NO 27 (sense GAGAAGAACUACAUAUAAA; antisense UUUAUAUGUAGUUCUUCUCAG; GalNAc conjugated, chemically modified, pattern not given here) [Duplex 2008-010-002]",0.98,–,–,–
"2002-018-002: GalNAc-conjugated modified ANGPTL3 siRNA, sense SEQ ID NO 34, antisense SEQ ID NO 13 (sense CAUAGUGAAGCAAUCUAAU; antisense AUUAGAUUGCUUCACUAUGGA; GalNAc conjugated, chemically modified, pattern not given here) [Duplex 2002-018-002]",0.96,–,–,–
"2002-018-001: GalNAc-conjugated modified ANGPTL3 siRNA, sense SEQ ID NO 39, antisense SEQ ID NO 13 (sense CAUAGUGAAGCAAUCUAAU; antisense AUUAGAUUGCUUCACUAUGGA; GalNAc conjugated, chemically modified, pattern not given here) [Duplex 2002-018-001]",1.9,–,–,–
